Results from ChEMBL document CHEMBL1201862, “PubChem BioAssay data set” (2004).
Active and inactive are the calls of the source.

Assays:
[1] = tested on: A-375; assay: MITF: Counter assay: A375 proliferation Measured in Cell-Based System Using Plate Reader - 2084-03_Inhibitor_Dose_DryPowder_Activity. [Related pubchem assays (depositor defined):AID488944]; assay type: functional; details: Homo sapiens
[2] = target: Glucose-6-phosphate 1-dehydrogenase (Homo sapiens, UniProt P11413); assay: human G6PD enzyme inhibitors, dose response, selectivity assay for P. falciparum G6PD inhibitor project, biochemical, fluorescence (AID 504792); assay type: functional
[3] = target: Voltage-gated inwardly rectifying potassium channel KCNH2 (Homo sapiens, UniProt Q12809); details: Potency;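 note: confirmatory quantitative high-throughput screen measuring inhibition of hERG channel activity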
[4] = tested on: HeLa; assay: HeLa cell cytotoxicity, dose response, cytotoxicity control for MITF activator project, CellTiter-Glo luminescence, cherry-pick samples (AID 540259); assay type: functional, cell-based; details: Homo sapiens
[5] = control 3'UTR Renilla luciferase suppression, dose response, counter-screen for Shn3 inhibitor project, cell-based, Clone20-Shn3RL, cherry-picked (AID 624133); assay type: functional
[6] = Shn3 3'UTR reporter inhibitors, dose response, cell-based, Clone20 osteoblasts, firefly luciferase, cherry-picked (AID 624132); assay type: functional;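 note: firefly luciferase luminescence from reporter carrying the Shn3 3'UTR in osteoblasts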
[7] = tested on: Vero; assay: Vero cell cytotoxicity, cytotoxicity control for flavivirus capping enzyme inhibitors (AID 588742); assay type: functional; details: Chlorocebus sabaeus
[8] = target: T1, RNA-binding protein pos-1 (Caenorhabditis elegans, UniProt G5EF15); assay: inhibitors of POS-1/mex-3 RNA binding, dose response, biochemical, fluorescence polarization (AID 1964);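 note: purified POS-1 fused to maltose binding protein made in E. coli; potency of compounds blocking POS-1 binding to fluorescent RNA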
T1 sequence (G5EF15 whole entry): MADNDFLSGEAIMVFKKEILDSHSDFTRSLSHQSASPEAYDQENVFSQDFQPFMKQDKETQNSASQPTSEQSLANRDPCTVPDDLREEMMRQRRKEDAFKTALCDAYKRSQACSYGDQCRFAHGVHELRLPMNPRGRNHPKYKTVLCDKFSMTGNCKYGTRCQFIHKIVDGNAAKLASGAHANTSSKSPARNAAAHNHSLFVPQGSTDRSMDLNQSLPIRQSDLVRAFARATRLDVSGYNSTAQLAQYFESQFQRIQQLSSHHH

[9] = tested on: Vero; assay: cells; assay type: functional; details: Chlorocebus sabaeus
[10] = target: Genome polyprotein (dengue virus type 2, UniProt P29990); assay: Dengue-2 NS5 methyltransferase inhibitors, primary screen, biochemical, confirmation dose response (AID 588689); assay type: functional
[11] = HepG2 cell cytotoxicity, dose response, cytotoxicity control for Shn3 inhibitor project, CellTiter-Glo, cherry-picked (AID 624134); assay type: functional, cell-based
[12] = target: T2, Zinc finger protein mex-5 (Caenorhabditis elegans, UniProt Q9XUB2); assay: MEX-5/TCR-2 RNA interaction inhibitors, dose response, biochemical, C. elegans, fluorescence polarization (AID 1960)
T2 sequence (Q9XUB2 whole entry): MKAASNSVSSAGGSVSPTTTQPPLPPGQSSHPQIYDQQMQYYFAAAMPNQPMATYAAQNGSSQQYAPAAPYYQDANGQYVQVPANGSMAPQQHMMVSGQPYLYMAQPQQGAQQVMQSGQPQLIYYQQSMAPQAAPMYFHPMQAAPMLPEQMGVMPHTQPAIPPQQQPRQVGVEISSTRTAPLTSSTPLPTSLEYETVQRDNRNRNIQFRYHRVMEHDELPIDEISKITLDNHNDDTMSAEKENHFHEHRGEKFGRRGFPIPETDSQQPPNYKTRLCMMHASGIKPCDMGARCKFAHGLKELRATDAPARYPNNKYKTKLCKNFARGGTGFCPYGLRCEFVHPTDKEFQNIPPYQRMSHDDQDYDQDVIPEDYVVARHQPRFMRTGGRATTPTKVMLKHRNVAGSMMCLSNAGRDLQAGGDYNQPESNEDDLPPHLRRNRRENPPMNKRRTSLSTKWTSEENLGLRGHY

[13] = target: T3, Streptokinase A (Streptococcus pyogenes serotype M1, UniProt P10520); assay: S. pyogenes streptokinase expression inhibitors, potency, dose response, plasminogen activation absorbance, OD405 (AID 1914); assay type: functional, Streptococcus pyogenes M1 GAS;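 note: secreted streptokinase activity via plasminogen activation per viability signal from cell pellet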
T3 sequence (P10520 whole entry): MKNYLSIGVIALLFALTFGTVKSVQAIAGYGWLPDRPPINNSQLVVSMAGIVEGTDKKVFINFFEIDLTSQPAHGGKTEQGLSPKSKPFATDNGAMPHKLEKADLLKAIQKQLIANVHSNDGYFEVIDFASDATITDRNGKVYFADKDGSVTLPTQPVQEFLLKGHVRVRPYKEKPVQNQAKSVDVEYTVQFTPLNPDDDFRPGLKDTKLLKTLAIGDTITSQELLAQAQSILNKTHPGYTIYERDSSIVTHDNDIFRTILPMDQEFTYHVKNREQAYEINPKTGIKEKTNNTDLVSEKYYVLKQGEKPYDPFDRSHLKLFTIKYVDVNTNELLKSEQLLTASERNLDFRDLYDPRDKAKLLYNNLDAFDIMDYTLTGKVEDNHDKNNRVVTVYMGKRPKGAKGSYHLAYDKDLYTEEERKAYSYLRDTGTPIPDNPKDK

[14] = tested on: Streptococcus sp. 'group A'; assay: growth inhibition of control SK(-) GAS strain, dose response, counter-screen for streptokinase expression inhibitor project, luminescence, kanamycin, BacTiterGlo, confirmation (AID 1900); assay type: functional, organism-based
[15] = tested on: Streptococcus; assay: Group A Streptococcus viability loss, dose response, counter-screen for streptokinase expression inhibitor project, luminescence, BacTiterGlo (AID 1915); assay type: functional, organism-based;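 note: potency for reduction of bacterial viability or growth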
[16] = tested on: HEK293; assay: inhibitors of LMP1-driven NF-kB reporter, dose response, cell-based, HEK293, luciferase, cherry-pick (AID 588343); assay type: functional; details: Homo sapiens
[17] = target: Neurotensin receptor type 1 (Homo sapiens, UniProt P30989); assay type: functional;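 note: Image-based confirmatory dose-response assay measuring agonist activity at NTR1; NTR1-expressing U2OS osteosarcoma cells imaged for beta-arrestin GFP spot formation; agonist potency where compounds increase beta-arrestin recruitment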
[18] = microbe, parasite or virus in culture; assay type: functional; details: Mycobacterium tuberculosis
[19] = target: T4, Endoribonuclease toxin MazF (Escherichia coli K-12, UniProt P0AE70); assay: fluorescent RNA oligo signal without MazF, dose response, counter-screen for MazEF activator project, biochemical, fluorescence, single-stranded RNase substrate (AID 588502); assay type: functional
T4 sequence (P0AE70 whole entry): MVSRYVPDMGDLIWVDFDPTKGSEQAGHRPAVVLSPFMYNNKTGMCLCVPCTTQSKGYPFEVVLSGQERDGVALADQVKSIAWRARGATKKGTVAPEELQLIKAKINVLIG

[20] = target: T4, Endoribonuclease toxin MazF; assay: MazF toxin RNase activators, dose response, biochemical, fluorescence, single-stranded RNA substrate, uHTS hits (AID 588481); assay type: functional

Sequence of Glucose-6-phosphate 1-dehydrogenase (P11413 whole entry): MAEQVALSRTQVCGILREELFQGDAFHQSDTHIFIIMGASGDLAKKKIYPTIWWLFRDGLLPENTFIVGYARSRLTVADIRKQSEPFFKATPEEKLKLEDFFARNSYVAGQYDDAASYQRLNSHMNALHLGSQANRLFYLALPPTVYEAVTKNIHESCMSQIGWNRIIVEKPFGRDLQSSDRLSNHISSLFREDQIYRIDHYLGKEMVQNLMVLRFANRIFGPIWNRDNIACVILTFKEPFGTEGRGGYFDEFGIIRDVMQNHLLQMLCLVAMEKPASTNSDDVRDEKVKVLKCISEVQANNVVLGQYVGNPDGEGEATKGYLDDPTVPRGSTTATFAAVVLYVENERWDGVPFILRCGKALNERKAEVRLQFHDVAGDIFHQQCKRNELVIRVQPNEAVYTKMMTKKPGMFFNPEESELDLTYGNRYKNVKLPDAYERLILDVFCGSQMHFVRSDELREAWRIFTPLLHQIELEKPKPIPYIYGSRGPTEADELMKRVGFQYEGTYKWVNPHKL
Sequence of Voltage-gated inwardly rectifying potassium channel KCNH2 (Q12809 whole entry): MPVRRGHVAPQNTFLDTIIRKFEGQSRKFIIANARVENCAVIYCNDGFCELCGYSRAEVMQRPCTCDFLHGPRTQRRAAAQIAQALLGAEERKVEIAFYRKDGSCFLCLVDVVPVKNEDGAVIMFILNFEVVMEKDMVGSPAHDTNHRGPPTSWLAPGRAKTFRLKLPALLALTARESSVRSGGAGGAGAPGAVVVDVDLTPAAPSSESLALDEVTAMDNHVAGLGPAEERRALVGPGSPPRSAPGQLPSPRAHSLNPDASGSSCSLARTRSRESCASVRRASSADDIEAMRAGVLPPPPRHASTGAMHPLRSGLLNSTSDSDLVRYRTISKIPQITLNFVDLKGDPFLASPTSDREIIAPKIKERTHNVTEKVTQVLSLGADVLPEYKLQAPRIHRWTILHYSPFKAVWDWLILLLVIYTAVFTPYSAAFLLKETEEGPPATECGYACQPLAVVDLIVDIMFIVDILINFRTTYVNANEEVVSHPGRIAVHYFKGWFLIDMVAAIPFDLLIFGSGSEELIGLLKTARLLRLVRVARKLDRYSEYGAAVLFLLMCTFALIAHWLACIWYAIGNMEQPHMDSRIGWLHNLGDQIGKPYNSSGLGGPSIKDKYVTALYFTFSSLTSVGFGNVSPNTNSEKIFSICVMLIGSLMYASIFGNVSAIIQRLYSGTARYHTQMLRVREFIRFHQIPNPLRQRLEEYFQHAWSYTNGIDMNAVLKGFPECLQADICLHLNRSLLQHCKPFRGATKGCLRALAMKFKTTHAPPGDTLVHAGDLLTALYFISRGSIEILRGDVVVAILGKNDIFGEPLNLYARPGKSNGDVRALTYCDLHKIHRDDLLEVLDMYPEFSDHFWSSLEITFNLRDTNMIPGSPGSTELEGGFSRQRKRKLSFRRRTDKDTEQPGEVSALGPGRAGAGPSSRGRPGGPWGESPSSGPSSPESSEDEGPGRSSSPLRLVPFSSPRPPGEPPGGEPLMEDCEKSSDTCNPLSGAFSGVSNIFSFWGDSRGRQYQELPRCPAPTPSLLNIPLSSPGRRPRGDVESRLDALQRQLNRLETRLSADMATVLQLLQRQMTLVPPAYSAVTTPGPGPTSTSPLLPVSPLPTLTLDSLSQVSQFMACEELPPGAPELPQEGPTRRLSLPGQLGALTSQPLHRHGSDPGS
Sequence of Neurotensin receptor type 1 (P30989 whole entry): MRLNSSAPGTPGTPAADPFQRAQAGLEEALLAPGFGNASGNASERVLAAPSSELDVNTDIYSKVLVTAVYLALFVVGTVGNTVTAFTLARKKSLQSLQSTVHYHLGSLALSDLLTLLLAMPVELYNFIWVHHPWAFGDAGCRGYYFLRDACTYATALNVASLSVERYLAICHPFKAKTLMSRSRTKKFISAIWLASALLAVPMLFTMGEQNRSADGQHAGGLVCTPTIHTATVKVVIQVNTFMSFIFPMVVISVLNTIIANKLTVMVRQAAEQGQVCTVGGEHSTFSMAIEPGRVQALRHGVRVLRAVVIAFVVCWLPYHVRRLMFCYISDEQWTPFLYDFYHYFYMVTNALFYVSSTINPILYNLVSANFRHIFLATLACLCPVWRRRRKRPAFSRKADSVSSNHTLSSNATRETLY
Sequence of Genome polyprotein (P29990 2492-3391 limits assumed): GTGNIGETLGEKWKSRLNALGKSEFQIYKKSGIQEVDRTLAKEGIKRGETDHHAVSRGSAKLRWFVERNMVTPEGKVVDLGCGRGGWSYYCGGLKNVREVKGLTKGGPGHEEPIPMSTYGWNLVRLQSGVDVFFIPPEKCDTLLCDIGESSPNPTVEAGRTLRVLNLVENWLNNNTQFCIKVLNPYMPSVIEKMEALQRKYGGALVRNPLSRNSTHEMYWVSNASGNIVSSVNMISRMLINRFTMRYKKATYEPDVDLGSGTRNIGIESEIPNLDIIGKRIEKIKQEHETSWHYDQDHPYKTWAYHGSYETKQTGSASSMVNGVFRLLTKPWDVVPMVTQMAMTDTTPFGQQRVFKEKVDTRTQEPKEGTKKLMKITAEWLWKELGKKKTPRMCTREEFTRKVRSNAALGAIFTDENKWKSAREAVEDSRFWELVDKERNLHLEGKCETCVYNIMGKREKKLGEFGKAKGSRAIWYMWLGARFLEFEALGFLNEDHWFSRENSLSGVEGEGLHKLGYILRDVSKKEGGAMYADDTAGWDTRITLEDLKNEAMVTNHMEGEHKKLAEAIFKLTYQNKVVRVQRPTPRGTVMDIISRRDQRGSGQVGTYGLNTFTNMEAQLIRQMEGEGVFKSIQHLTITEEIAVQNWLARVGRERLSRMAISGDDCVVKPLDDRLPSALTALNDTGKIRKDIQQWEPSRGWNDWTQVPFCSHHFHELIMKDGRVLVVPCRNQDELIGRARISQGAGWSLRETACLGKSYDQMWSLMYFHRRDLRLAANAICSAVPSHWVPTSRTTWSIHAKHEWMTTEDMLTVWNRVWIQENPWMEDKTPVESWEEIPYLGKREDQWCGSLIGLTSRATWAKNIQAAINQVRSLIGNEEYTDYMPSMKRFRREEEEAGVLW

With `CC(C)=NOc1cc(NC(=O)CCl)cc([N+](=O)[O-])c1` the AC50 [1] was 15.3 µM (active).
In the case of `COc1cc(NCc2ccccc2O)c2ncccc2c1`, the IC50 [2] was > 80 µM (inactive).
For `CCC(Cl)CC(Cl)C(Cl)C(Cl)C(Cl)C(C)Cl` (centres undefined), the AC50 [3] was 11.2 µM (inconclusive).
In the case of `COc1ccc(-c2cc(=O)c3cc(C)ccc3[nH]2)cc1`, the AC50 [4] was 79.9 µM (active).
For `CCOc1cc(/C=C2/C(=O)ON=C2C)ccc1OCc1ccccc1F`, the AC50 [5] was 28.2 µM (active), the AC50 [6] was 6.95 µM (active) and the CC50 [7] was > 40 µM (active). For the same compound, the EC50 [8] was 53.5 µM (active), the CC50 [9] was > 25 µM (active) and the IC50 [10] was 41.5 µM (active). For the same compound, the AC50 [11] was 69.3 µM (active) and the EC50 [12] was 37.3 µM (inconclusive).
In the case of `Cc1ccc(C(=O)/C=C/C(=O)c2ccc(C)cc2)cc1`, the EC50 [13] was 0.653 µM (active), the EC50 [14] was 3.45 µM (active) and the IC50 [2] was > 80 µM (inactive). For the same compound, the EC50 [15] was 9.38 µM (active), the AC50 [16] was 8.72 µM (active) and the EC50 [17] was 14.9 µM (active). The CC50 [18] was 31.4 µM (active).
In the case of `Cc1nc2cc(NCc3nc4ccccc4n3Cc3ccccc3)ccc2n1C`, the CC50 [7] was > 40 µM (active).
With `CN(CC(=O)Nc1ccccc1Cl)CC(=O)c1c(N)n(Cc2ccccc2)c(=O)n(C)c1=O` the EC50 [19] was > 99 µM (inactive) and the EC50 [20] was > 99 µM (inactive).
In the case of `CCN(Cc1ccccc1)c1ccccc1`, the AC50 [3] was 35.5 µM (inconclusive).
For `CCN(CC)C(=O)Oc1ccc2c(=O)c(-c3ccc(OC)cc3)coc2c1`, the AC50 [4] was 287 µM (active).
